In US9365562B2, “1,3 substituted azetidine PDE10 inhibitors” (Merck Sharp & Dohme Corp., priority 2011, dated 2016):

Target: human PDE10A2 (Homo sapiens (Human), UniProt Q9Y233)
Assay: PDE10 fluorescence polarization (IMAP FP) inhibition assay
Assay type: biochemical
Settings: apparent inhibition constant, FAM-labeled cAMP substrate 50 nM, room temperature
Procedure: The activity of the compounds in accordance with the present invention as PDE10 inhibitors may be readily determined without undue experimentation using a fluorescence polarization (FP) methodology that is well known in the art (Huang, W., et al., J. Biomol Screen, 2002, 7: 215).
In a typical experiment the PDE10 inhibitory activity of the compounds of the present invention was determined in accordance with the following experimental method. PDE10A2 was amplified from human fetal brain cDNA (Clontech, Mountain View, Calif.) using a forward primer corresponding to nucleotides 56-77 of human PDE10A2 (Accession No. AF127480, Genbank Identifier 4894716), containing a Kozak consensus sequence, and a reverse primer corresponding to nucleotides 2406-2413 of human PDE10A2 (Accession No. AF127480, Genbank Identifier 4894716). Amplification with Easy-A polymerase (Stratagene, La Jolla, Calif.) was 95° C. for 2 minutes followed by thirty three cycles of 95° C. for 40 seconds, 55° C. for 30 seconds, and 72° C. for 2 minutes 48 seconds. Final extension was 72° C. for 7 minutes. The PCR product was TA cloned into pcDNA3.2-TOPO (Invitrogen, Carlsbad, Calif.) according to standard protocol. AD293 cells with 70-80% confluency were transiently transfected with human PDE10A2/pcDNA3.2-TOPO using Lipofectamine 2000 according to manufacturer specifications (Invitrogen, Carlsbad, Calif.). Cells were harvested 48 hours post-transfection and lysed by sonication (setting 3, 10×5 sec pulses) in a buffer containing 20 mM HEPES, 1 mM EDTA and protease inhibitor cocktail (Roche). Lysate was collected by centrifugation at 75,000×g for 20 minutes. Supernatant containing the cytoplasmic fraction was used for evaluation of PDE10A2 activity. The fluorescence polarization assay for cyclic nucleotide phosphodiesterases was performed using an IMAP® FP kit supplied by Molecular Devices, Sunnyvale, Calif. (product # R8139). IMAP® technology has been applied previously to phosphodiesterase assays (Huang, W., et al., J. Biomol Screen, 2002, 7: 215). Assays were performed at room temperature in 384-well microtiter plates with an incubation volume of 20.2 μL. Solutions of test compounds were prepared in DMSO and serially diluted with DMSO to yield 8 μL of each of 10 solutions differing by 3-fold in concentration, at 32 serial dilutions per plate. 100% inhibition is determined using a known PDE10 inhibitor, which can be any compound that is present at 5,000 times its Ki value in the assay described as follows, such as papaverine (see Siuciak, et al. Neuropharmacology (2006) 51:386-396; Becker, et al. Behav Brain Res (2008) 186(2):155-60; Threlfell, et al., J Pharmacol Exp Ther (2009) 328(3):785-795), 2-{4-[pyridin-4-yl-1-(2,2,2-trifluoroethyl)-1H-pyrazol-3-yl]phenoxymethyl}quinoline succinic acid or 2-[4-(1-methyl-4-pyridin-4-yl-1H-pyrazol-3-yl)-phenoxymethyl]quinoline succinic acid (see Schmidt, et al. J Pharmacol Exp Ther (2008) 325:681-690; Threlfell, et al., J Pharmacol Exp Ther (2009) 328(3): 785-795). 0% of inhibition is determined by using DMSO (1% final concentrations). A Labcyte Echo 555 (Labcyte, Sunnyvale, Calif.) is used to dispense […] from each well of the titration plate to the 384 well assay plate. A solution of enzyme (1/7000 dilution from aliquots; sufficient to produce 20% substrate conversion) and a separate solution of FAM-labeled cAMP PDE from Molecular Devices (product # R7506), at a final concentration of 50 nM are made in the assay buffer (10 mM Tris HCl, pH 7.2, 10 mM MgCl2, 0.05% NaN3 0.01% Tween-20, and 1 mM DTT). The enzyme is added to the assay plates by the addition of 10 μL of enzyme solution to each well, shaken to mix and incubated at room temperature for 60 minutes. The substrate is then added to the assay plates by the addition of 10 μL of substrate solution to each well, shaken to mix, and incubated at room temperature for 60 minutes. […]

Chain of human PDE10A2 (Q9Y233 267-1055): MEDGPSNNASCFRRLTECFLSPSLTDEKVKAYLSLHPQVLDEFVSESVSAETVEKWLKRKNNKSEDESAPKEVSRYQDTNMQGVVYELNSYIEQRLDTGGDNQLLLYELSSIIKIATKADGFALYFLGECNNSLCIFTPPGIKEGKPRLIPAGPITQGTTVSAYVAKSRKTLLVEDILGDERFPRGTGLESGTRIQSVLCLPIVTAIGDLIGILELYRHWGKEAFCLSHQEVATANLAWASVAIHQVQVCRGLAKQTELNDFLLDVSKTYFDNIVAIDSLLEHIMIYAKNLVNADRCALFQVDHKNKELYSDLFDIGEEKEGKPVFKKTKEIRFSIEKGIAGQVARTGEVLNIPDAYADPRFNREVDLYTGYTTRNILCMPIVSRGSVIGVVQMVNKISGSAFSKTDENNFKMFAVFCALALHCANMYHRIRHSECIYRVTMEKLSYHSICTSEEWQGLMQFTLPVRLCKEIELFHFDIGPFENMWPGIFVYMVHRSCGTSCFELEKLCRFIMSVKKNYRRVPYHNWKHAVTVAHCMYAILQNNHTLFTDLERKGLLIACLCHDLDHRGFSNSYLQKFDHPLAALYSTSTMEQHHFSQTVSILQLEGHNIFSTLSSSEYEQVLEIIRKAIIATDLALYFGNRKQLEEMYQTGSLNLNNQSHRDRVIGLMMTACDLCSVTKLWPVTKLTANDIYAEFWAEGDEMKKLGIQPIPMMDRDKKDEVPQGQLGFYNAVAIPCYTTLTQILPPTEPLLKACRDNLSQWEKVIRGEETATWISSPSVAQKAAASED

Ki [nM] | SMILES
7.5 | Cc1nc(N2CC(c3nc4ccccc4n3C)C2)cc(-n2nc(C)nc2-c2cccnc2)n1 [Example 52, 1-methyl-2-(1-(2-methyl-6-(3-methyl-5-(pyridin-3-yl)-1H-1,2,4-triazol-1-yl)pyrimidin-4-yl)azetidin-3-yl)-1H-benzo[d]imidazole]
26 | Cc1cnc(-c2nc(C)nn2-c2cc(N3CC(c4nc5ccccc5n4C)C3)nc(C)n2)cn1 [Example 53, 1-methyl-2-(1-(2-methyl-6-(3-methyl-5-(5-methylpyrazin-2-yl)-1H-1,2,4-triazol-1-yl)pyrimidin-4-yl)azetidin-3-yl)-1H-benzo[d]imidazole]
16 | Cc1nc(N2CC(c3nc4ccccc4n3C)C2)cc(-n2nc(C)nc2-c2ccc(C#N)cc2)n1 [Example 54, 4-(3-methyl-1-(2-methyl-6-(3-(1-methyl-1H-benzo[d]imidazol-2-yl)azetidin-1-yl)pyrimidin-4-yl)-1H-1,2,4-triazol-5-yl)benzonitrile]
10 | Cc1ccc(-c2nc(C)nn2-c2cc(N3CC(c4nc5ccccc5n4C)C3)nc(C)n2)cn1 [Example 55, 1-methyl-2-(1-(2-methyl-6-(3-methyl-5-(6-methylpyridin-3-yl)-1H-1,2,4-triazol-1-yl)pyrimidin-4-yl)azetidin-3-yl)-1H-benzo[d]imidazole]
0.24 | Cc1nc(N2CC(c3nc4ccccc4n3C)C2)cc(-n2nc(C)nc2-c2c(F)cccc2F)n1 [Example 56, 2-(1-(6-(5-(2,6-difluorophenyl)-3-methyl-1H-1,2,4-triazol-1-yl)-2-methylpyrimidin-4-yl)azetidin-3-yl)-1-methyl-1H-benzo[d]imidazole]
0.065 | Cc1nc(N2CC(c3nc4ccccc4n3C)C2)cc(-n2nc(C)nc2Cc2cc(F)ccc2F)n1 [Example 57, 2-(1-(6-(5-(2,5-difluorobenzyl)-3-methyl-1H-1,2,4-triazol-1-yl)-2-methylpyrimidin-4-yl)azetidin-3-yl)-1-methyl-1H-benzo[d]imidazole]
0.12 | Cc1nc(N2CC(c3nc4ccccc4n3C)C2)cc(-n2nc(C)nc2Cc2ccc(F)cc2)n1 [Example 58, 2-(1-(6-(5-(4-fluorobenzyl)-3-methyl-1H-1,2,4-triazol-1-yl)-2-methylpyrimidin-4-yl)azetidin-3-yl)-1-methyl-1H-benzo[d]imidazole]
1.5 | COCc1nc(C)nn1-c1cc(N2CC(c3nc4ccccc4n3C)C2)nc(C)n1 [Example 59, 2-(1-{6-[5-(methoxymethyl)-3-methyl-1H-1,2,4-triazol-1-yl]-2-methylpyrimidin-4-yl}azetidin-3-yl)-1-methyl-1H-benzimidazole]
1.1 | Cc1nc(C)n(-c2cc(N3CC(c4nc5ccccc5n4C)C3)nc(C(F)(F)F)n2)n1 [Example 60, 2-{1-[6-(3,5-dimethyl-1H-1,2,4-triazol-1-yl)-2-(trifluoromethyl)pyrimidin-4-yl]azetidin-3-yl}-1-methyl-1H-benzimidazole]
0.46 | Cc1nc(C)n(-c2cc(N3CC(c4nc5ccccc5n4C)C3)nc(C3CC3)n2)n1 [Example 61, 2-{1-[2-cyclopropyl-6-(3,5-dimethyl-1H-1,2,4-triazol-1-yl)pyrimidin-4-yl]azetidin-3-yl}-1-methyl-1H-benzimidazole]
0.76 | COc1nc(N2CC(c3nc4ccccc4n3C)C2)cc(-n2nc(C)nc2C)n1 [Example 62, 2-{1-[6-(3,5-dimethyl-1H-1,2,4-triazol-1-yl)-2-methoxypyrimidin-4-yl]azetidin-3-yl}-1-methyl-1H-benzimidazole]
1.8 | COc1nc(N2CC(c3nc4ccccc4n3C)C2)cc(-n2nc(C)nc2C2CC2)n1 [Example 63, 2-(1-(6-(5-cyclopropyl-3-methyl-1H-1,2,4-triazol-1-yl)-2-methoxypyrimidin-4-yl)azetidin-3-yl)-1-methyl-1H-benzo[d]imidazole]
0.4 | CCc1nc(C)nn1-c1cc(N2CC(c3nc4ccccc4n3C)C2)nc(OC)n1 [Example 64, 2-(1-(6-(5-ethyl-3-methyl-1H-1,2,4-triazol-1-yl)-2-methoxypyrimidin-4-yl)azetidin-3-yl)-1-methyl-1H-benzo[d]imidazole]
